From patent publication US7645882B2, “Inhibitor of protein modification products formation” (priority 2003, dated 2010)

System: pentosidine
Assay: Pentosidine production inhibiting effect with BSA and arabinose
Format: biochemical
Conditions: BSA and arabinose instead of plasma
Description: Fresh heparinized plasma samples were obtained after informed consent from hemodialysis patients prior to the dialysis session, and filtrated and sterilized. To the plasma (450 μL), there was added the solution of TM-2002 in dimethylsurphoxide (50 μL) (final concentration: 0.8, 2.0, 5.0 mM) incubated at 37° C. for one week. Then, the amount of pentosidine was measured.
Measurement of the amount of pentosidine was made as follows: to each incubated sample (50 μL) was added an equal volume of 10% trichloroacetic acid, followed by centrifugation at 5000 g for 5 minutes; after removal of the supernatant, the pellet was washed by 5% trichloroacetic acid (300 μL); the pellet was dried under reduced pressure and then subjected to hydrolysis in 6N HCl solution (100 μL) at 110° C. under nitrogen atmosphere for 16 hours; to the hydrolysate, 5N NaOH (100 μL) and 0.5 M phosphate buffer (pH 7.4) (200 μL) were added, followed by filtration through a porefilter with a pore size of 0.5 μm and dilution with PBS. The concentration of free pentosidine was determined by reversed-phase HPLC using a fluorescence detector (Miyata, T. et al.: Proc. Natl. Acad. Sci. USA, Vol. 93, p. 2353-2358, 1996). The effluent was monitored at 335/385 nm of excitation/emission wavelength. Synthetic pentosidine was used as the standard. The detection limit of pentosidine was 0.1 pmol/mg protein.
The plasma from patients was substituted to BSA and arabinose, and the pentosidine production inhibiting effect of another compounds (I) or (II) was measured in the same manner as [Test Examination 1]. Therein, “-” means that the examination was not carried out.

Compound	Pentosidine production rate in 5 mM of medicament (%)
CC1=NN(c2ccc(S(N)(=O)=O)cc2)C(=O)C1=Cc1ccc(O)cc1 [compound 49, 4-[4-(4-hydroxy-benzylidene)-3-methyl-5-oxo-4,5-dihydro-pyrazol-1-yl]-benzenesulfonamide]	7.09%
CCOC(=O)c1ccc(N2N=C(C(F)(F)F)/C(=C/c3cccs3)C2=O)cc1 [compound 50, 4-(5-oxo-4-thiophene-2-yl-methylene-3-trifluoromethyl-4,5-dihydro-pyrazol-1-yl)-benzoic acid-ethyl ester]	63.17%
CN(C)c1ccc(/C=C2\C(=O)N(c3ccc(S(N)(=O)=O)cc3)N=C2C(F)(F)F)cc1 [compound 51, 4-[4-(4-dimethylamino-benzylidene)-5-oxo-3-trifluoromethyl-4,5-dihydro-pyrazole-1-yl]-benzenesulfonamide]	41.68%
O=C1/C(=C\c2ccc(O)cc2)C(C(F)(F)F)=NN1c1ccccc1 [compound 53, 4-(4-hydroxy-benzylidene)-2-phenyl-5-trifluoromethyl-2,4-dihydro-pyrazol-3-one]	66.76%
CC1=NN(c2ccc(C)c(C)c2)C(=O)/C1=C\c1ccc(O)cc1O [compound 54, 4-(2,4-dihydroxy-benzylidene)-2-(3,4-dimethyl-phenyl)-5-methyl-2,4-dihydro-pyrazol-3-one]	73.48%
COc1ccc(/C=C2/C(=O)N(c3ccccc3)N=C2C)c(OC)c1O [compound 59, 4-(3-hydroxy-2,4-dimethoxy-benzylidene)-5-methyl-2-phenyl-2,4-dihydro-pyrazol-3-one]	5.3%
COc1cc(/C=C2/C(=O)N(c3ccc(C(=O)OC(C)C)cc3)NC2C)ccc1O (stereo not drawn) [compound 60, 4-[4-(4-hydroxy-3-methoxy-benzylidene)-3-methyl-5-oxo-pyrazolidin-1-yl]-benzoic acid-isopropyl ester]	9.02%
COc1cc(/C=C2/C(=O)N(c3ccc(Cl)c(C(=O)O)c3)N=C2C)c(Cl)cc1O [compound 61, 2-chloro-5-[4-(2-chloro-4-hydroxy-5-methoxy-benzylidene)-3-methyl-5-oxo-4,5-dihydro-pyrazol-1-yl]-benzoic acid]	46.25%
CC1=NN(c2ccccc2)C(=O)/C1=C/N(C)C [compound 65, 4-dimethylaminomethylene-5-methyl-2-phenyl-2,4-dihydro-pyrazol-3-one]	62.43%
CC1=NN(c2ccccc2)C(=O)/C1=C/c1c(C)nn(-c2ccccc2)c1O [compound 66, 4-(5-hydroxy-3-methyl-1-phenyl-1H-pyrazol-4-yl-methylene)-5-methyl-2-phenyl-2,4-dihydro-pyrazol-3-one]	15.17%
CC1=NN(c2ccccc2)C(=O)/C1=C/c1ccc(Cl)cc1 [compound 67, 4-(4-chloro-benzylidene)-5-methyl-2-phenyl-2,4-dihydro-pyrazol-3-one]	9.09%
CC1=NN(c2ccccc2)C(=O)/C1=C/c1ccc(O)cc1 [compound 70, 4-(4-hydroxy-benzylidene)-5-methyl-2-phenyl-2,4-dihydro-pyrazol-3-one]	0.04%
CC1=NN(c2cccc(Cl)c2)C(=O)/C1=C/c1ccc(O)cc1 [compound 71, 2-(3-chloro-phenyl)-4-(4-hydroxy-benzylidene)-5-methyl-2,4-dihydropyrazol-3-one]	4.63%
CC1=NN(c2ccccc2)C(=O)/C1=C/c1ccc(OCc2ccccc2)cc1 [compound 72, 4-(4-benzyloxy-benzylidene)-5-methyl-2-phenyl-2,4-dihydropyrazol-3-one]	7.63%
CC1=NN(c2cccc(Cl)c2)C(=O)/C1=N/O [compound 73, 2-(3-chloro-phenyl)-5-methyl-2H-pyrazol-3,4-dione 4-oxym]	66.42%
